Data published in publication PMC11167047 (Cell Death Discovery, 2024).

How the values were obtained:
Experiment in all cases: kinome screen (33PanQinase)
Type in all cases: biochemical
CDK8/CycC = molecular target: T1, CDK8/CycC (Homo sapiens, UniProt P49336)
T1 construct: purchased Reaction Biology Europe GmbH (formerly ProQinase)
Method: (§1) The Kinome Screening was performed by Reaction Biology Europe GmbH (http://reactionbiology.com; Freiburg i. Br., Germany).

MET = molecular target: T2, MET (Homo sapiens, UniProt P08581)
T2 construct: purchased Reaction Biology Europe GmbH (formerly ProQinase)
Method: as §1

CK1Δ = molecular target: T3, CK1Δ (Homo sapiens, UniProt P48730)
T3 construct: purchased Reaction Biology Europe GmbH (formerly ProQinase)
T3 sequence (P48730 whole entry, stated change not applied): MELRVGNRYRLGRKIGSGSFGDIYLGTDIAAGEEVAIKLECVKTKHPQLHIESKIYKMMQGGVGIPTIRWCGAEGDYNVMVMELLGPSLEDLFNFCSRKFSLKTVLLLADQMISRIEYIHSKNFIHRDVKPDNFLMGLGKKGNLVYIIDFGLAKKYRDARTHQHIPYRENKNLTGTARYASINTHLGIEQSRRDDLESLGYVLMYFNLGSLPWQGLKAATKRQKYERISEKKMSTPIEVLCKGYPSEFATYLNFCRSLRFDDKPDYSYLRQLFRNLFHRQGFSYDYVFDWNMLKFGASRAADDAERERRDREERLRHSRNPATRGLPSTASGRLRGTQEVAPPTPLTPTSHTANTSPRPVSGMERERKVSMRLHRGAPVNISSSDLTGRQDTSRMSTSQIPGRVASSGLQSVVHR
Method: as §1

IGF1R = molecular target: T4, IGF1R (Homo sapiens, UniProt P08069)
T4 construct: purchased Reaction Biology Europe GmbH (formerly ProQinase)
Method: as §1

STK39 = molecular target: T5, STK39 (Homo sapiens, UniProt Q9UEW8)
T5 construct: purchased Reaction Biology Europe GmbH (formerly ProQinase)
Method: as §1

TSSK1 = molecular target: T6, TSSK1 (Homo sapiens, UniProt Q9BXA7)
T6 construct: purchased Reaction Biology Europe GmbH (formerly ProQinase)
T6 sequence (Q9BXA7 1-367): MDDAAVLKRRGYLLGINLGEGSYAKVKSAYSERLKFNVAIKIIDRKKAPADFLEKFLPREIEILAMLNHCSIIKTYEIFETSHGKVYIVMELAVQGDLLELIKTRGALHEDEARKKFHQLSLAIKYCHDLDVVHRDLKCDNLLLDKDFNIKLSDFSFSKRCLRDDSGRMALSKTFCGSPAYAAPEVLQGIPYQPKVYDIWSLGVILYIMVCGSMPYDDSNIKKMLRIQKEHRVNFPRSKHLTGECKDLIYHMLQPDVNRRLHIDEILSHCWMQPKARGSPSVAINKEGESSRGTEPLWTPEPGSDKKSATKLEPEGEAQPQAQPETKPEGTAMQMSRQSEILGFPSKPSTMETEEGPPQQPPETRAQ
Method: as §1

ACVR2A = molecular target: T7, ACVR2A (Homo sapiens, UniProt P27037)
T7 construct: purchased Reaction Biology Europe GmbH (formerly ProQinase)
T7 sequence (P27037 20-513): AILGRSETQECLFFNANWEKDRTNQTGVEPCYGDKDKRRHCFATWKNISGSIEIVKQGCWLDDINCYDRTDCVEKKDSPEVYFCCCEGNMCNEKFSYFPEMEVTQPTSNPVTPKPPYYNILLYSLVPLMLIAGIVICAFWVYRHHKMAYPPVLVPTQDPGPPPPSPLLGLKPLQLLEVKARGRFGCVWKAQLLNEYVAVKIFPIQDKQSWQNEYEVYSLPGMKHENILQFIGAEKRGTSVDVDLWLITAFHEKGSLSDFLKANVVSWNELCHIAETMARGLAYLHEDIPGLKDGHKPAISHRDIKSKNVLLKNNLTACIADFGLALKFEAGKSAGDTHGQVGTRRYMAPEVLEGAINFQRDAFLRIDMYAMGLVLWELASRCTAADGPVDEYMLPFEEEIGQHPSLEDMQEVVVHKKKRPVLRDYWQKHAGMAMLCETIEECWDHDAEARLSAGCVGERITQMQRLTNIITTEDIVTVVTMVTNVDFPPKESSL
Method: as §1

TEC = molecular target: T8, TEC (Homo sapiens, UniProt P42680)
T8 construct: purchased Reaction Biology Europe GmbH (formerly ProQinase)
T8 sequence (P42680 1-631): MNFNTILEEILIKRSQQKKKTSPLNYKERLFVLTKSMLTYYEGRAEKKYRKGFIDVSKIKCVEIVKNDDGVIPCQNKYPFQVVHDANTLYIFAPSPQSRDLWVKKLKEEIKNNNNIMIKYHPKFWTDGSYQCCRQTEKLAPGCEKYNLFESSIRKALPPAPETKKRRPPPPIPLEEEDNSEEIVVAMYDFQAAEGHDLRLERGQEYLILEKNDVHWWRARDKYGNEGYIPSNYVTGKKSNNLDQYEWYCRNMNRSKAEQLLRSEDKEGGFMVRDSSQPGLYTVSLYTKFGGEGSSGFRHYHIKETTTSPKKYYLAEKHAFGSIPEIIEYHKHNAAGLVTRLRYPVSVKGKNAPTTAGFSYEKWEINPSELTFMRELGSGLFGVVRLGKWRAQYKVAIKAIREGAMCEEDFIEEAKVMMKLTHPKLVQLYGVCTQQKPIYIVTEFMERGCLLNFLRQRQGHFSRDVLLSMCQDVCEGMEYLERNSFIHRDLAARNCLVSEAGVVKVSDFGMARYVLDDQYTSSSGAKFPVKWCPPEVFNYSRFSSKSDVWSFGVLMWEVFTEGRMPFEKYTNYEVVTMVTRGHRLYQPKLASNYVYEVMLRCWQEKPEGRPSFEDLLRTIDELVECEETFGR
Method: as §1

CK2α2 = molecular target: T9, CK2α2 (Homo sapiens, UniProt P19784)
T9 construct: purchased Reaction Biology Europe GmbH (formerly ProQinase)
T9 sequence (P19784 whole entry): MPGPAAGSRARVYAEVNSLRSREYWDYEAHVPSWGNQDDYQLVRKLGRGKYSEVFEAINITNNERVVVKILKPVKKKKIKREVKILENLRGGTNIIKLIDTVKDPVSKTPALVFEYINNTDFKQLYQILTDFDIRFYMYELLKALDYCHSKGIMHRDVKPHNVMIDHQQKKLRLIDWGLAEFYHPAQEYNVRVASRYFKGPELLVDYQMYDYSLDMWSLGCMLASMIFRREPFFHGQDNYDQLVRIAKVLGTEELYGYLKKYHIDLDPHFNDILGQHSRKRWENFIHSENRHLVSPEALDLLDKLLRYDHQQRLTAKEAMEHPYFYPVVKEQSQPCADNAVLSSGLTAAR
Method: as §1

HIPK3 = molecular target: T10, HIPK3 (Homo sapiens, UniProt Q9H422)
T10 construct: purchased Reaction Biology Europe GmbH (formerly ProQinase)
T10 sequence (Q9H422 whole entry): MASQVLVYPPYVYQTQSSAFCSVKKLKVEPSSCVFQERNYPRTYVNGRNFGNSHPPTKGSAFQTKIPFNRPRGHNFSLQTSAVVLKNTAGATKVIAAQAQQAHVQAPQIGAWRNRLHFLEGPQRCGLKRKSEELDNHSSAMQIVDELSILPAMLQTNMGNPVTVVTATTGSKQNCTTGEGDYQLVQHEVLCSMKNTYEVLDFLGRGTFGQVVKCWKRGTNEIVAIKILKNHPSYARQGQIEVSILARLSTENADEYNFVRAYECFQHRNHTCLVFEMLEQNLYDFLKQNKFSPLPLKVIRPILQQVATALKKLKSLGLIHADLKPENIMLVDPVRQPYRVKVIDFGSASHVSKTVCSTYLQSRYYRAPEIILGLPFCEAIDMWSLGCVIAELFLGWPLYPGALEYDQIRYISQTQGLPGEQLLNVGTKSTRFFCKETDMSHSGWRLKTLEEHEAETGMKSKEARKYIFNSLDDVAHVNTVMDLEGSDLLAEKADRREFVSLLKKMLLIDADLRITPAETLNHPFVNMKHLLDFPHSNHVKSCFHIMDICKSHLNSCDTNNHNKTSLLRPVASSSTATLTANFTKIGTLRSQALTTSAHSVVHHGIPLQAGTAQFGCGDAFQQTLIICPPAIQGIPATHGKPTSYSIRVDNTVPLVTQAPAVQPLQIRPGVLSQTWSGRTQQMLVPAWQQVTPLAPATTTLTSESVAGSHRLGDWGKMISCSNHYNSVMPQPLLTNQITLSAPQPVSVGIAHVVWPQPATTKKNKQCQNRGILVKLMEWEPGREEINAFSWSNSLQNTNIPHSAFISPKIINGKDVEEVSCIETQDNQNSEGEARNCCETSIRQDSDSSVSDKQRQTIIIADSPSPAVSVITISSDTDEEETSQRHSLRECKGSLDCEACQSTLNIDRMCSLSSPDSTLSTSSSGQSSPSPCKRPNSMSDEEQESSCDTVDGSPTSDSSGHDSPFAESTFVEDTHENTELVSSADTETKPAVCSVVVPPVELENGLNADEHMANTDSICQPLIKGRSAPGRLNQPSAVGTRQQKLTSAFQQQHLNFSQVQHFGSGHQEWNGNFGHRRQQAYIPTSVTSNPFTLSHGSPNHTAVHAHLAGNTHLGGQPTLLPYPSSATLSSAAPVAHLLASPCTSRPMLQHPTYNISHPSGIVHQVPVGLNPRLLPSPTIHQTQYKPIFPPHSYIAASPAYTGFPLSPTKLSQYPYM
Method: as §1

VEGFR2 = molecular target: T11, VEGFR2 (Homo sapiens, UniProt P35968)
T11 construct: purchased Reaction Biology Europe GmbH (formerly ProQinase)
T11 sequence (P35968 20-1356): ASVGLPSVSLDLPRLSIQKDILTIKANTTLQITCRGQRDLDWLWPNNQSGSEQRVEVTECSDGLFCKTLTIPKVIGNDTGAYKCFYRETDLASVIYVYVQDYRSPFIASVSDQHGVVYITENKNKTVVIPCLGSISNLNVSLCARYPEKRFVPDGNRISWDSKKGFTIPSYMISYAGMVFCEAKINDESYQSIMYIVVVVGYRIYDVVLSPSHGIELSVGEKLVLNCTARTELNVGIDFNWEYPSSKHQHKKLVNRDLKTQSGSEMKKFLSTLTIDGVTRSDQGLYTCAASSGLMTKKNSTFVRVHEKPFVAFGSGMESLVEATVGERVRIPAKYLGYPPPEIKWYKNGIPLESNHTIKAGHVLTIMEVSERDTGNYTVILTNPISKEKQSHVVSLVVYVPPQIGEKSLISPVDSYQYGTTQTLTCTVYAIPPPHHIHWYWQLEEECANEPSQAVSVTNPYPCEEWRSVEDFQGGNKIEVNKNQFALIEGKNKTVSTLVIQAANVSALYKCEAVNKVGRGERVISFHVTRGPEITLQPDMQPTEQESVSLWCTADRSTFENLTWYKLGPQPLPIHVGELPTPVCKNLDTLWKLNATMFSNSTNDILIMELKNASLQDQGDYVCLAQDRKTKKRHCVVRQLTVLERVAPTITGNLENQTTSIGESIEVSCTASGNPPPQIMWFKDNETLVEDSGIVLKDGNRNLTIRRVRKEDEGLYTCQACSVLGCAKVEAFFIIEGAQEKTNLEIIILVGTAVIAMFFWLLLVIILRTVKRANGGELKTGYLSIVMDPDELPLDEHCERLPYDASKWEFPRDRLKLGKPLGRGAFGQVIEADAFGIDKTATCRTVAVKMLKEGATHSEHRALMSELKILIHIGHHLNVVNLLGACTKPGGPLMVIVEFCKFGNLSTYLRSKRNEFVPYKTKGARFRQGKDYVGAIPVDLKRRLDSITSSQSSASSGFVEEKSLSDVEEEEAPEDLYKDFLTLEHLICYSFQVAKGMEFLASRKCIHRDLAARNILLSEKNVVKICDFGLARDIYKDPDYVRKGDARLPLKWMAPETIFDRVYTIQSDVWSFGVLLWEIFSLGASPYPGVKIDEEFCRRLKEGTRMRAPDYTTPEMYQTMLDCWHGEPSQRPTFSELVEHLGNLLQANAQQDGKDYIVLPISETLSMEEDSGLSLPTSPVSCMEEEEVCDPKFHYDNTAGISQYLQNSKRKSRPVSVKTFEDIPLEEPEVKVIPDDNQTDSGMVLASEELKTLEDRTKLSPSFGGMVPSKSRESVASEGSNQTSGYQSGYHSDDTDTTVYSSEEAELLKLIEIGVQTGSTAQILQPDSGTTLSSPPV
Method: as §1

IKKβ = molecular target: T12, IKKβ (Homo sapiens, UniProt O14920)
T12 construct: purchased Reaction Biology Europe GmbH (formerly ProQinase)
T12 sequence (O14920 1-756): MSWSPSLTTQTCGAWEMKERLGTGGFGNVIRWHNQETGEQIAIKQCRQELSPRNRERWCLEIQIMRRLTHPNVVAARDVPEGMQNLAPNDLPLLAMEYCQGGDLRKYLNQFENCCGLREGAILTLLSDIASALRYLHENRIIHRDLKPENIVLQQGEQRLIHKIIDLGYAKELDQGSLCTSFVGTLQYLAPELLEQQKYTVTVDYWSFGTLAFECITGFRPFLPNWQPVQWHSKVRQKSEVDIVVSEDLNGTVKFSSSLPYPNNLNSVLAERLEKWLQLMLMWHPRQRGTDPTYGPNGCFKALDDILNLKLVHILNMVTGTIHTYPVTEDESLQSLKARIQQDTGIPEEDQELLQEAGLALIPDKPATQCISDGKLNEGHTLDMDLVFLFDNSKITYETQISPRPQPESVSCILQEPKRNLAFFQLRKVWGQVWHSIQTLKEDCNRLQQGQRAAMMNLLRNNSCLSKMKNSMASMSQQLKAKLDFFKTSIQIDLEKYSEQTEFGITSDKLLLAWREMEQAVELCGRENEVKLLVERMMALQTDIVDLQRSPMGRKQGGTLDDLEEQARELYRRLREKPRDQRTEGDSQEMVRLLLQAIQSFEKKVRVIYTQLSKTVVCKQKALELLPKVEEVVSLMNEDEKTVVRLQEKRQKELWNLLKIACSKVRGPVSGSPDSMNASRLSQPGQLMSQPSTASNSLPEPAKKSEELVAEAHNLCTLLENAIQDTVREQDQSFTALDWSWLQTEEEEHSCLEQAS
Method: as §1

T1 sequence (P49336 whole entry): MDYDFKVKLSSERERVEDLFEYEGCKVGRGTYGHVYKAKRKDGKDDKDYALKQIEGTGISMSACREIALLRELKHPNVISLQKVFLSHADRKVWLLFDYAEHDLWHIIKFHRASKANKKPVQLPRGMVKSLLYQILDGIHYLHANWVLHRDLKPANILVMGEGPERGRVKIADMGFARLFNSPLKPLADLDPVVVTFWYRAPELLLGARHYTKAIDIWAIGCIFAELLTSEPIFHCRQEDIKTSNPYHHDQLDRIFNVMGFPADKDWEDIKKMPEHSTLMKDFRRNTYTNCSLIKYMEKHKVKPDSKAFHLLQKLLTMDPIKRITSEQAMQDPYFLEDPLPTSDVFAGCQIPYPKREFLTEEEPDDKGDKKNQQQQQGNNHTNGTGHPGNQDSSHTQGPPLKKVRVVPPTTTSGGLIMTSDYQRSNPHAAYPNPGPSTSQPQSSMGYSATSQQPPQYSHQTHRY
T1 sequence (P24863 whole entry partner): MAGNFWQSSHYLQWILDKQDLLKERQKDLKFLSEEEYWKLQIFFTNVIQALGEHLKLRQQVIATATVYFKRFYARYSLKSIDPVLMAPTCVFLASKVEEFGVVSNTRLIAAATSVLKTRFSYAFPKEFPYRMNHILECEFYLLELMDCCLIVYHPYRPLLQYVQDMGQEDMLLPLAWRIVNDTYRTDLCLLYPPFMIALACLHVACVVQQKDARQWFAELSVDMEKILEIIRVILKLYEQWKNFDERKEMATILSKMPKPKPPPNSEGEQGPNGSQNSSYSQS

COc1ccnc2[nH]cc(-c3cc(N)nc(N)c3)c12 [meriolin 16]
residual kinase activity (CDK8/CycC; 0.03 µM): 6 % of control | residual kinase activity (CDK8/CycC; 0.3 µM): 4 % of control | residual kinase activity (MET; 0.03 µM): 110 % of control | residual kinase activity (MET; 0.3 µM): 106 % of control | residual kinase activity (CK1Δ; 0.03 µM): 77 % of control | residual kinase activity (CK1Δ; 0.3 µM): 17 % of control | residual kinase activity (IGF1R; 0.03 µM): 116 % of control | residual kinase activity (IGF1R; 0.3 µM): 99 % of control | residual kinase activity (STK39; 0.03 µM): 77 % of control | residual kinase activity (STK39; 0.3 µM): 66 % of control | residual kinase activity (TSSK1; 0.03 µM): 109 % of control | residual kinase activity (TSSK1; 0.3 µM): 83 % of control | residual kinase activity (ACVR2A; 0.03 µM): 103 % of control | residual kinase activity (ACVR2A; 0.3 µM): 103 % of control | residual kinase activity (TEC; 0.03 µM): 110 % of control | residual kinase activity (TEC; 0.3 µM): 101 % of control | residual kinase activity (CK2α2; 0.03 µM): 110 % of control | residual kinase activity (CK2α2; 0.3 µM): 105 % of control | residual kinase activity (HIPK3; 0.03 µM): 53 % of control | residual kinase activity (HIPK3; 0.3 µM): 7 % of control | residual kinase activity (VEGFR2; 0.03 µM): 102 % of control | residual kinase activity (VEGFR2; 0.3 µM): 98 % of control | residual kinase activity (IKKβ; 0.03 µM): 85 % of control | residual kinase activity (IKKβ; 0.3 µM): 64 % of control

c1ccc(CNc2cc(-c3c[nH]c4ncccc34)ccn2)cc1 [meriolin 36]
residual kinase activity (CDK8/CycC; 0.3 µM): 5 % of control | residual kinase activity (CDK8/CycC; 3 µM): 2 % of control | residual kinase activity (MET; 0.3 µM): 99 % of control | residual kinase activity (MET; 3 µM): 48 % of control | residual kinase activity (CK1Δ; 0.3 µM): 43 % of control | residual kinase activity (CK1Δ; 3 µM): 9 % of control | residual kinase activity (IGF1R; 0.3 µM): 128 % of control | residual kinase activity (IGF1R; 3 µM): 83 % of control | residual kinase activity (STK39; 0.3 µM): 40 % of control | residual kinase activity (STK39; 3 µM): 19 % of control | residual kinase activity (TSSK1; 0.3 µM): 50 % of control | residual kinase activity (TSSK1; 3 µM): 15 % of control | residual kinase activity (ACVR2A; 0.3 µM): 94 % of control | residual kinase activity (ACVR2A; 3 µM): 47 % of control | residual kinase activity (TEC; 0.3 µM): 114 % of control | residual kinase activity (TEC; 3 µM): 96 % of control | residual kinase activity (CK2α2; 0.3 µM): 91 % of control | residual kinase activity (CK2α2; 3 µM): 43 % of control | residual kinase activity (HIPK3; 0.3 µM): 45 % of control | residual kinase activity (HIPK3; 3 µM): 11 % of control | residual kinase activity (VEGFR2; 0.3 µM): 60 % of control | residual kinase activity (VEGFR2; 3 µM): 19 % of control | residual kinase activity (IKKβ; 0.3 µM): 80 % of control | residual kinase activity (IKKβ; 3 µM): 36 % of control
